Assay results taken from US20250312469A1 (CANGET BIOTEKPHARMA, priority 2024, published 2025).
Where “and” joins values, the source holds several entries; their conditions need not be identical. Equal values may be shown once.

Assays:
TA97a = experiment: Ames Bacterial Reverse Mutation Assay; conditions: for Background Lawn Code / Colony Counts Average / Colony Counts Replicate 1-3: TA97a
[1] = tested on: Panc-1 and MiaPaca-2 cells; experiment: 3D cell spheroid formation and viability; format: cell-based, human
Procedure: 3D) cell spheroid formation studies: Pancreatic cancer cells were cultured in the ultra-low attachment plates in the pancreatic cancer organoid culture medium. In some studies, to observe the spheroid formation, DDX5 KO pancreatic cancer cells in the presence and absence of Agrin at a concentration of 2.5 μg/mL, 5 μg/mL and/or 10 μg/mL for 6-7 days were cultured. […] Representative images were take during this time and cell viability was determined by MTT assay.

[2] = tested on: other 109 ubiquitin-related proteins/enzymes; experiment: ProtoArray protein microarray probed with 3H-FL118; format: binding, human
Procedure: The flask was then immersed in silicone oil bath at 180° C.-190° C. for 6 hours. The tritium gas was removed. The reaction mixture was dissolved in 1 mL of DMSO and back-exchanged 10× with 50% ethanol. Injected directly to CapCeLL PAK C-18 column (4.6×250 mm), mobile phase 30% CH3CN, 0.1% TFA, flow 1 mL/min, U.V. =200 nm, r.t. =40 min. After purification, total activity was 5 mCi (solid) with a specificity of 5.6 Ci/mmol at a radiochemical purity of >97% for ^3H-FL118. […] The flask was then immersed in silicone oil bath at 190° C. for 24 h. The tritium gas was removed. The reaction mixture was dissolved in 1 mL of DMSO and back-exchanged 10× with 50% ethanol and injected directly to CapCeLL Pak C-18 column (4.6×250 mm), mobile phase 30% CH3CN, 0.1% TFA, […], U.V. =200 nm, r.t. =40 min. After purification total activity was 5 mCi (solid) with a specificity of 16.5 Ci/mmol at a radiochemical purity of ≥81% for ^3H-FL118.
Use of ^3H-FL118 as a radioactive probe to search FL118-binding proteins through screening of human protein microarray (ProtoArray R with 9,400 human proteins, Invitrogen): The study process includes the following steps.
1. Blocking the ProtoArray: (i) Immediately place the mailer containing the Human Protein Microarray v5.0 at 4° C. upon removal from storage at −20° C. and equilibrate the mailer at 4° C. for at least 15 minutes prior to use. […]

CCC1(O)C(=O)OCc2c1cc1n(c2=O)Cc2cc3cc4c(cc3nc2-1)OCO4 (stereo not shown) [FL118]
bacterial strain mutation (TA97a): does not induce
mean revertant colonies over negative control (TA97a; +/− S9): less than 2 fold
Background Lawn Code (TA97a; 0.010 μM +S9): 1
Colony Counts Average (TA97a; 0.010 μM +S9): 141
Colony Counts Replicate 1-3 (TA97a; 0.010 μM +S9): 123 and 140 and 161
Background Lawn Code (TA97a; 0.010 μM −S9): 1
Colony Counts Average (TA97a; 0.010 μM −S9): 101
Colony Counts Replicate 1-3 (TA97a; 0.010 μM −S9): 108 and 105 and 90
Background Lawn Code (TA97a; 0.10 μM +S9): 1
Colony Counts Average (TA97a; 0.10 μM +S9): 172
Colony Counts Replicate 1-3 (TA97a; 0.10 μM +S9): 189 and 150 and 178
Background Lawn Code (TA97a; 0.10 μM −S9): 1
Colony Counts Average (TA97a; 0.10 μM −S9): 95
Colony Counts Replicate 1-3 (TA97a; 0.10 μM −S9): 116 and 87 and 82
Background Lawn Code (TA97a; 1.0 μM +S9): 1
Colony Counts Average (TA97a; 1.0 μM +S9): 142
Colony Counts Replicate 1-3 (TA97a; 1.0 μM +S9): 140 and 146 and 139
Background Lawn Code (TA97a; 1.0 μM −S9): 1
Colony Counts Average (TA97a; 1.0 μM −S9): 119
Colony Counts Replicate 1-3 (TA97a; 1.0 μM −S9): 111 and 113 and 134
whole blood partitioning (Blood partitioning; 1 μM): favorable whole blood partitioning results
RBC to Plasma Partitioning (KRBC/P) (Blood partitioning; human whole blood): 1.04
3D spheroid formation [1]: inhibited
cell viability in 3D culture [1]: inhibited in a FL118 concentration-dependent manner
binding to other ubiquitin-related proteins [2]: did not bind
